# Laboratory results as given in BindingDB's records for doi:10.1038/nchembio.2334 (University of North Carolina, 2017).
# Experiments:
# [1] = molecular target: T1, Mas-related G-protein coupled receptor member X2 (Homo sapiens, UniProt Q96LB1); test: Intracellular Calcium Mobilization Assay; settings: pH 7.4; 30 °C
# T1 sequence (Q96LB1 whole entry): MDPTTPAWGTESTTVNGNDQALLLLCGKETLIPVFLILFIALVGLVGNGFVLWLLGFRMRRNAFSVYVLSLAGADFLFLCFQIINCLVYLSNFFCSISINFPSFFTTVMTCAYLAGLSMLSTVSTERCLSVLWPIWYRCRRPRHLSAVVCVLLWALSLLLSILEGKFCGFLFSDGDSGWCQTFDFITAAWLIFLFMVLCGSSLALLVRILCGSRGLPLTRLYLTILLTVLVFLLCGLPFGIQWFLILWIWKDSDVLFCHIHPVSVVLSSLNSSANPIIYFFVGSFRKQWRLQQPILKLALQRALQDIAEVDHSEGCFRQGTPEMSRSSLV
# Experimental: MRGPRX2 stable cells were maintained in DMEM containing 10% FBS, 100 μg/ml hygromycin B, and 15 μg/ml blasticidin. For the calcium mobilization assay, cells were plated into glass bottomed, poly-L-lysine coated, black 384 well plates at a density of 20,000 cells/well in medium containing 1% dialyzed FBS, 1 μg/ml tetracycline, 100 IU/ml penicillin and 100 μg/ml streptomycin and incubated 24 h. Following tetracycline induction, medium was removed and cells were loaded with 20 μl/well of 1× FLIPR Calcium dye (Molecular Devices) and 2.5 mM probenic acid, for 1 h in a humidified environment at 37 °C with 5% CO2. For mast cell calcium experiments, cells were seeded at a density of 50,000 cells/well in Tyrode's buffer containing 1× calcium dye and incubated for 1 h before treatment and analysis. After dye loading, baseline was measured for 10 s before drug treatment, and then cells were treated with 10 μl of 3× concentrated drug in drug buffer (1× HBSS with 20 mM HEPES and 2.5 mM probenic acid, pH 7.4) in 16 point concentration response curves from 100 μM to 0.003 nM.
# [2] = molecular target: T1, Mas-related G-protein coupled receptor member X2; test: PRESTO-Tango Assay; settings: pH 7.4; 30 °C
# Experimental: HTLA cells (HEK-T cells stably expressing a β-arrestin2-TEV fusion protein and a tTa-dependent luciferase reporter) were maintained in DMEM (Corning) containing 10% FBS, 2 μg/ml puromycin and 100 μg/ml hygromycin B in a humidified atmosphere at 37 °C with 5% CO2. In brief, cells were plated to 50% confluency and transfected with a codon-optimized MRGPRX-Tango construct using the calcium phosphate method53. The next day, transfected cells were transferred to glass-bottomed, poly-L-lysine-coated white 384-well plates at a density of 20,000 cells/well. The following day, cells were treated with 10 μM concentrations of small molecules (in quadruplicate) diluted in drug buffer (1× HBSS with 20 mM HEPES and 0.3% bovine serum albumin, pH 7.4) and incubated for 18-24 h. After drug incubation, medium was removed and 20 μl of Bright-Glo (Promega; diluted 20-fold) was added to each well and incubated 15 min at room temperature.
SMILES,EC50 [1] [µM],EC50 [2] [µM]
CN1CC[C@]23CCCC[C@@H]2[C@H]1Cc1ccc(O)cc13 [Dextrorphan],3.9,4.2
"C[C@@H]1C2Cc3ccc(O)cc3[C@]1(C)CCN2 [(6R,11S)-6,11-Dimethyl-1,2,3,4,5,6-hexahydro-2,6-methano-benzo[d]azocin-8-ol]",–,50
CN1CC[C@@]2(c3cccc(O)c3)Cc3nc4ccccc4cc3C[C@@H]2C1 [(+)-TAN-67],0.29,0.43
COC1=CC=C2[C@H]3Cc4ccc(OC)c5c4[C@@]2(CCN3C)[C@H]1O5 [Thebaine],76,11
COc1ccc2c3c1O[C@H]1[C@@H](OC(C)=O)C=C[C@H]4[C@@H](C2)N(C)CC[C@@]341 [6-Acetylcodeine],25,19
"C[C@H]1C2Cc3ccc(O)cc3[C@@]1(C)CCN2 [(6S,11R)-6,11-Dimethyl-1,2,3,4,5,6-hexahydro-2,6-methano-benzo[d]azocin-8-ol]",13,14
CC(=O)O[C@H]1C=C[C@H]2[C@H]3Cc4ccc(O)c5c4[C@@]2(CCN3C)[C@H]1O5 [6-Acetylmorphine],21,12
CC(C)C[C@H](NC(=O)[C@H](Cc1ccccc1)NC(=O)CNC(=O)CNC(=O)[C@@H](N)Cc1ccc(O)cc1)C(=O)N[C@@H](CCCNC(=N)N)C(=O)N[C@@H](CCCNC(=N)N)C(=O)N[C@@H](CCC(N)=O)C(=O)N[C@@H](Cc1ccccc1)C(=O)N[C@@H](CCCCN)C(=O)N[C@H](C(=O)N[C@H](C(=O)N[C@H](C(=O)O)[C@H](C)O)C(C)C)C(C)C [Dynorphin B (1-13)],6.5,33
CC[C@H](C)[C@H](NC(=O)[C@H](CCCNC(=N)N)NC(=O)[C@H](CCCNC(=N)N)NC(=O)[C@H](CC(C)C)NC(=O)[C@H](Cc1ccccc1)NC(=O)CNC(=O)CNC(=O)[C@@H](N)Cc1ccc(O)cc1)C(=O)N[C@@H](CCCNC(=N)N)C(=O)N1CCC[C@H]1C(=O)N[C@@H](CCCCN)C(=O)N[C@@H](CC(C)C)C(=O)N[C@@H](CCCCN)C(=O)N[C@@H](Cc1c[nH]c2ccccc12)C(=O)N[C@@H](CC(=O)O)C(=O)N[C@@H](CC(N)=O)C(=O)N[C@@H](CCC(N)=O)C(=O)O [Dynorphin A (1-17)],2.3,21
CN1CC[C@@]23CCCC[C@H]2[C@@H]1Cc1ccc(O)cc13 [Levorphanol],13,22
COc1ccc2c(c1)[C@@]13CCCC[C@@H]1[C@@H](C2)N(C)CC3 [Dextromethorphan],5.9,3.2
CCC(=O)O[C@](Cc1ccccc1)(c1ccccc1)[C@H](C)CN(C)C [PROPOXYPHENE],32,15
C[C@@H]1[C@@H]2Cc3ccc(O)cc3[C@@]1(C)CCN2C [(+)-Metazocine],9.3,7.2
